{"source": "paper PMC12423301", "about": "“Astrocytic monoamine oxidase B (MAOB)–gamma-aminobutyric acid (GABA) axis as a molecular brake on repair following spinal cord injury” (Signal Transduction and Targeted Therapy, 2025)", "key": {"[1]": {"test": "Preclinical pharmacokinetics in monkeys", "format": "in vivo, Cynomolgus monkey", "conditions": "for AUC(0-t) / Vd/F / Tmax / AUC(0-inf) / CL/F / half-life: cynomolgus monkey, in vivo", "protocol": "In a pharmacokinetic study, plasma PK parameters were measured after a single oral administration of […]\ndose group and at 4 to 6 hours after administration in the 30 mg/kg dose group. In the elimination phase, the […]\nSystemic exposure (AUClast) to the test substance was 30587 and 80770 ng*hr/mL, respectively. […]"}, "[2]": {"test": "Preclinical pharmacokinetics in monkeys", "conditions": "cynomolgus monkey, in vivo, iv, 5 mg/kg"}, "[3]": {"system": "white matter stroke rat model", "conditions": "cited from earlier work"}, "[4]": {"test": "Blood chemistry and liver function in monkey SCI model", "format": "in vivo, cynomolgus macaques (Macaca fascicularis)", "protocol": "Blood samples were collected from the animals via the radial or femoral vein at three time points: 2 days, 2 weeks, and 5 weeks post-injury. All the animals were fasted for approximately 16 h prior to each collection, with water provided ad libitum. Approximately 2.0 mL of blood was drawn and placed into tubes without anticoagulant and left at room temperature for at least 90 min. The samples were then centrifuged at 3000 rpm for 10 min at room temperature to separate the serum. Finally, the serum samples were analyzed for creatinine (CREA), alkaline phosphatase (ALP), gamma-glutamyl transpeptidase (GGT), total bilirubin (TBIL), ALB, ALT, and aspartate aminotransferase (AST) levels. These biochemical parameters were measured using a TBA 120FR chemistry analyzer (Toshiba Co.)."}, "[5]": {"system": "diphtheria toxin receptor-inducible transgenic mice", "format": "in vivo, mouse"}, "[6]": {"test": "GLP toxicity tests in rats"}, "[7]": {"test": "14C radiolabeled KDS2010 disposition and excretion in rats", "format": "in vivo, SD rats", "protocol": "Protocol No. NB_KDS_ADP1_21 Confidential\nIn a pharmacokinetic study, plasma PK parameters were measured after a single oral administration of\n5.2. Rationale for Selection of Dose and Duration of Dosing\nAccording to the FDA guideline (Estimating the Maximum Safe Starting Dose in Initial Clinical Trials for […]"}, "[8]": {"test": "Phase 1 clinical trial: pharmacokinetics", "protocol": "All subjects provided consent for this phase 1 clinical trial study. The study comprised 11 cohorts: single ascending dose (SAD) and multiple ascending dose (MAD) studies. […] Cohort 3 employed a two-period crossover design with a 14-day washout.\nThe parameters related to plasma concentrations were calculated via non-compartmental analysis using the linear-up log-down method in Phoenix WinNonlin software version 8.3 (Certara, US). The parameters related to urine concentrations were calculated using the linear trapezoidal linear interpolation method.\nIn the SAD study, plasma samples were collected using sodium K2-EDTA tubes at pre-dose, 0.33, 0.75, 1, 2, 3, 4, 6, 8, 12, 24, 48, 72, 96, 120, and 144 h after dosing. Urine samples were collected up to 72 h post-dose. In the MAD study, plasma samples were collected at pre-dose, 0.33, 0.75, 1, 2, 3, 4, 6, 8, 12 and 24 h after the administration of the first dose, and at pre-dose of the third to seventh doses. After the administration of the seventh dose, plasma samples were collected at the same time points as after the first dose, with additional sampling points at 48, 72, 96, 120, and 144 h post-dose. Urine samples were collected for 24 h after the administration of the first dose and for 72 h after the seventh dose.\nFor the clinical trial, dose proportionality of the PK parameters (Cmax, Cmax,ss, AUClast, and AUCτ) was assessed using power model using the following equation: log (PK parameter) = β0 + β1 log (dose). The regression slope (β1) and the intercept (β0) were estimated with 95% confidence interval (CI) using PROC REG in SAS version 9.4. The PK parameters were considered dose-proportional if the 95% CI of the β1 included 1. […] Using a linear mixed effect model, the logarithmized PK parameters were analyzed with the high-gat meal as a fixed effect and inter-individual differences as a random effect. The GMR and its 90% CI of the PK parameters of the high-fat meal were calculated relative to those in the fasting state. […] In elderly subjects, the same analyses were performed and compared to those of healthy younger adults."}, "[9]": {"conditions": "Sprague-Dawley, rat, in vivo"}, "[10]": {"conditions": "BDC rats, until 48 hours after oral administration"}, "[11]": {"conditions": "up to 168 hours after administration"}}, "note": "Values joined by “and” are separate entries in the source; they are usually repeats but may differ in a detail not shown here. Identical values can stand only once. Like-named read-outs stand apart in the source and are kept apart here.", "data": [{"compound": "CS(=O)(=O)O.C[C@H](NCc1ccc(-c2ccc(C(F)(F)F)cc2)cc1)C(N)=O", "note": "[KDS2010, (S)-2-(((4’-Trifluoromethylbiphenyl-4-yl)methyl)amino)propanamide methane-sulfonate]", "values": [{"measurement": "AUC(0-t)", "setting": "[1]", "result": "~13000", "unit": "ng·h/mL"}, {"measurement": "Vd/F", "setting": "[1]; iv, 5 mg/kg", "result": "3.714 ± 0.609", "unit": "L/kg"}, {"measurement": "increase in the AUC, 30 mg/kg vs 10 mg/kg", "setting": "[1]; cynomolgus monkeys", "result": "5 fold and ~ 4.6 fold"}, {"measurement": "increase rate of Cmax vs dose", "setting": "[1]; male monkeys, 10 and 30 mg/kg", "result": "slightly lower"}, {"measurement": "Tmax", "setting": "[1]; male", "result": "2 to 6", "unit": "h"}, {"measurement": "AUC(0-inf)", "setting": "[1]; male, po, 10 mg/kg", "result": 43600, "unit": "ng·h/mL"}, {"measurement": "CL/F", "setting": "[1]; male, po, 10 mg/kg", "result": 3.8, "unit": "mL/min/kg"}, {"measurement": "Vd/F", "setting": "[1]; male, po, 10 mg/kg", "result": "4.49 ± 0.61", "unit": "L/kg"}, {"measurement": "half-life", "setting": "[1]; male, po, 10 mg/kg, t1/2", "result": "13.7 ± 0.48", "unit": "h"}, {"measurement": "AUC(0-inf)", "setting": "[1]; male, po, 30 mg/kg", "result": "202000 ± 76800", "unit": "ng·h/mL"}, {"measurement": "CL/F", "setting": "[1]; male, po, 30 mg/kg", "result": 2.58, "unit": "mL/min/kg"}, {"measurement": "Vd/F", "setting": "[1]; male, po, 30 mg/kg", "result": "6.27 ± 1.67", "unit": "L/kg"}, {"measurement": "half-life", "setting": "[1]; male, po, 30 mg/kg, t1/2", "result": 16.9, "unit": "h"}, {"measurement": "AUC(0-inf)", "setting": "[1]; male, cynomolgus, po, 10 mg/kg", "result": 43600, "unit": "ng·h/mL"}, {"measurement": "AUC(0-t)", "setting": "[1]; male, cynomolgus, po, 10 mg/kg", "result": 30600, "unit": "ng·h/mL"}, {"measurement": "Tmax", "setting": "[1]; male, cynomolgus, po, 10 mg/kg", "result": 2, "unit": "h"}, {"measurement": "half-life", "setting": "[1]; male, cynomolgus, po, 10 mg/kg, mean half-life (t1/2)", "result": 13.7, "unit": "h"}, {"measurement": "half-life", "setting": "[1]; male, cynomolgus, po, 10 mg/kg, t1/2", "result": 13.7, "unit": "h"}, {"measurement": "AUC(0-inf)", "setting": "[1]; male, cynomolgus, po, 30 mg/kg", "result": "~202000", "unit": "ng·h/mL"}, {"measurement": "AUC(0-t)", "setting": "[1]; male, cynomolgus, po, 30 mg/kg", "result": 80800, "unit": "ng·h/mL"}, {"measurement": "Tmax", "setting": "[1]; male, cynomolgus, po, 30 mg/kg", "result": "4 to 6", "unit": "h"}, {"measurement": "half-life", "setting": "[1]; male, cynomolgus, po, 30 mg/kg, mean half-life (t1/2)", "result": 31.1, "unit": "h"}, {"measurement": "half-life", "setting": "[1]; male, cynomolgus, po, 30 mg/kg, t1/2", "result": "~31.1", "unit": "h"}, {"measurement": "AUC(0-inf)", "setting": "[2]", "result": "17900 ± 2460", "unit": "ng·h/mL"}, {"measurement": "half-life", "setting": "[2]; t1/2", "result": "8.65 ± 0.97", "unit": "h"}, {"measurement": "motor performance", "setting": "[3]", "result": "improve motor performance"}, {"measurement": "signs of hepatic and muscle stress", "setting": "[4]; 3 mpk", "result": "no signs of stress"}, {"measurement": "creatine kinase (CK) and alanine transaminase (ALT) levels", "setting": "[4]; 10 mpk, PI 2w", "result": "transient increases"}, {"measurement": "CK and ALT levels", "setting": "[4]; 10 mpk, PI 5w", "result": "returned to normal"}, {"measurement": "albumin (ALB) levels", "setting": "[4]; 10 mpk, PI 5w", "result": "moderate reduction"}, {"measurement": "No-Observed-Adverse-Effect Level (NOAEL)", "setting": "[4]; monkey SCI model", "result": 3, "unit": "mpk"}, {"measurement": "brain atrophy", "setting": "[5]", "result": "restored to the level of control group"}, {"measurement": "neurofilament (NF)", "setting": "[5]", "result": "reducing"}, {"measurement": "neuronal factors NeuN and MAP2", "setting": "[5]", "result": "increasing"}, {"measurement": "survival", "setting": "[5]", "result": "increase in survival"}, {"measurement": "human equivalent dose (HED) of MTD", "setting": "[6]; from rat MTD", "result": 6774.2, "unit": "mg/60kg"}, {"measurement": "histopathology (kidneys, bladder, testis, epididymis and lungs)", "setting": "[6]; oral 30, 50, 75 and 100 mg/kg once daily for 4 weeks", "result": "histopathological changes"}, {"measurement": "mortality", "setting": "[6]; oral 50-200 mg/kg daily for 2 weeks", "result": "no deaths"}, {"measurement": "administered radioactivity present in the body (carcass)", "setting": "[7]; 14C radiolabeled, oral 10 mg/kg", "result": 44.1, "unit": "%"}, {"measurement": "excreted in bile", "setting": "[7]; BDC (bile duct-cannulated) rats, until 48 hours after oral administration", "result": 71.5, "unit": "%"}, {"measurement": "excreted in feces", "setting": "[7]; [10]", "result": 6.0, "unit": "%"}, {"measurement": "excreted in urine", "setting": "[7]; [10]", "result": 6.8, "unit": "%"}, {"measurement": "excretion to air through respiration", "setting": "[7]; until 48 hours after administration", "result": "about 0.0%"}, {"measurement": "excreted in feces", "setting": "[7]; [11]", "result": 48.5, "unit": "%"}, {"measurement": "excreted in urine", "setting": "[7]; [11]", "result": 6.9, "unit": "%"}, {"measurement": "increase of systemic exposure (AUCinf and AUCτ,ss) with dose", "setting": "[8]; 60 mg to 480 mg", "result": "dose-proportional"}, {"measurement": "higher exposure in elderly subjects", "setting": "[8]; 120 mg for 7 days, elderly vs young", "result": "approximately 25%"}, {"measurement": "pharmacokinetic profiles, Korean vs Caucasian subjects", "setting": "[8]; 60, 120, 240, 480 mg at steady state", "result": "similar"}, {"measurement": "unchanged drug excreted in the urine", "setting": "[8]; healthy humans", "result": "Less than 1%"}, {"measurement": "AUC(0-inf)", "setting": "[8]; human, in vivo, 120 mg", "result": 13900, "unit": "ng·h/mL"}, {"measurement": "effect of a high-fat meal on systemic exposure (Cmax and AUCinf)", "setting": "[8]; human, in vivo, 120 mg", "result": "did not affect"}, {"measurement": "half-life", "setting": "[8]; human, in vivo, po", "result": 44.2, "unit": "h"}, {"measurement": "time to maximum plasma concentration (Cmax)", "setting": "[8]; human, in vivo, po", "result": 3, "unit": "h"}, {"measurement": "approximate lethal dose", "setting": "[9]; iv", "result": "≥ 100", "unit": "mg/kg"}, {"measurement": "approximate lethal dose", "setting": "[9]; po", "result": "≥ 1400", "unit": "mg/kg"}]}]}
